These results are taken from US20090306221A1, “Use for Cannabinoid” (GW PHARMA LIMITED, priority 2006, published 2009).

The target of this assay is human cannabinoid CB2 receptors (Homo sapiens, UniProt P34972). Put plainly: [35S]GTPγS binding assay, hCB2-transfected CHO cell membranes. The conditions noted are these: stimulation of [35S]GTPγS binding. (Binding of GTPγS marks nucleotide exchange on a G protein.)
Chain of human cannabinoid CB2 receptors (P34972 whole entry): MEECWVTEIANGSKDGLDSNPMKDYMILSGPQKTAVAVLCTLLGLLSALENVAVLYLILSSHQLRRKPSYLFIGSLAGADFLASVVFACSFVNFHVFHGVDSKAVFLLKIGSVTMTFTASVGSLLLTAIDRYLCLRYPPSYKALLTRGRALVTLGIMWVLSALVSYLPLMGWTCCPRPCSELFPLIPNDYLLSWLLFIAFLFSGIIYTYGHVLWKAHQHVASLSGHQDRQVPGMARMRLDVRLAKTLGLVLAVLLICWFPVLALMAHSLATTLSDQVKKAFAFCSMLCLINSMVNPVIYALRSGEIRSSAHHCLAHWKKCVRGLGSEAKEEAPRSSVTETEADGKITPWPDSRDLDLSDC

Experimental: CHO cells were stably transfected with cDNA encoding human cannabinoid CB2 receptors and were maintained at 37° C. and 5% CO2 in Dulbecco's Modified Eagle's Medium nutrient mixture.
The assays were carried out with GTPγS binding buffer (50 mM Tris-HCl; 50 mM Tris-Base; 5 mM MgCl2; 1 mM EDTA; 100 mM NaCl; 1 mM DTT; 0.1% BSA) in the presence of [^35S]GTPγS and GDP, in a final volume of 500 μl. Binding was initiated by the addition of [^35S]GTPγS to the tubes. The drugs were incubated in the assay for 60 min at 30° C. The reaction was terminated by a rapid vacuum filtration method using Tris buffer (50 mM Tris-HCl; 50 mM Tris-Base; 0.1% BSA), as described previously, and the radioactivity was quantified by liquid scintillation spectrometry.
The agonism of the CB1 or CB2 receptors by CP55940 results in a response in the cell. This response is the binding of [^35S]GTPγS to the cell membrane.
Changes in the response in the presence of the test compound can be measured in order to determine whether the compound is acting as an agonist, a neutral antagonist or an inverse agonist.

Take SR144528: the “shift in the log-concentration response curve of CP55940” value is “downward and rightward shift”.
